In ChEMBL document CHEMBL1156829 (Proc Natl Acad Sci U S A, 2008):
pEC50: −log10 of the molar value. Where a name gives a salt, the structure may show the parent alone.

Assays:
[1] = NOVARTIS: Cytotoxicity against human hepatocellular carcinoma cell line (Huh7); format: toxicity, cell-based, Huh-7; conditions: Huh7 cells (hepatocellular carcinoma cell line)
Plasmodium falciparum [2] = experiment: NOVARTIS: Inhibition of Plasmodium falciparum 3D7 (drug-susceptible) proliferation in erythrocyte-based infection assay; format: functional, organism-based; conditions: Plasmodium falciparum, 3D7
Plasmodium falciparum [3] = experiment: NOVARTIS: Inhibition of Plasmodium falciparum W2 (drug-resistant) proliferation in erythrocyte-based infection assay; format: functional, organism-based; conditions: Plasmodium falciparum, W2; read-out: EC50

SMILES	CC50 [1] [nM]	pEC50 (Plasmodium falciparum [2])	pEC50 (Plasmodium falciparum [3])
O=C1c2cccc(N3CCN(Cc4cccn4-c4nccs4)CC3)c2C(=O)N1Cc1ccc(Cl)cc1	> 100000	5.26	< 4.90
COc1cc2c(cc1OC)C(COc1ccc(F)cc1)N(C(=O)c1ccc(OC(C)C)cc1)CC2 (stereo unspecified)	> 100000	6.81	5.85
Cc1ccc(NC(=O)N(CCN(C)C)Cc2cc3cc4c(cc3[nH]c2=O)OCCO4)cc1	> 100000	6.01	6.80
c1ccc(OCCOc2ccc(Nc3ccnc4cc5ccccc5cc34)cc2)cc1	6110	6.91	7.01
CC[C@H]1CN2CCc3cc(OC)c(OC)cc3[C@@H]2C[C@@H]1C[C@H]1NCCc2cc(O)c(OC)cc21 [CEPHAELINE HYDROBROMIDE]	26.1	8.44	8.37
COc1ccc(C[C@H](N)C(=O)N[C@H]2[C@@H](O)[C@H](n3cnc4c(N(C)C)ncnc43)O[C@@H]2CO)cc1 [PUROMYCIN]	6630	6.21	6.48
C[n+]1cccc(/C=C2/c3ccccc3-c3ncccc32)c1	> 10000	6.09	6.26
COc1ccc(OC)c(C2CC(=O)N3CN(Cc4ccccc4)CSC3=C2C#N)c1 (stereo unspecified)	> 100000	6.20	6.32
Cc1ccc(C)c2[nH]c(=O)c(CN(Cc3ccccc3)C(=S)NCCCN(C)C)cc12	19500	5.28	< 5.33
CCCOC(=O)C1=C(C)NC2=C(C(=O)CC(c3ccccc3)C2)C1c1ccc(Cl)cc1Cl (stereo unspecified)	> 100000	6.32	6.96
CCCn1c(SCCNC(=O)/C=C/c2ccccc2)nc(-c2ccccc2)c1-c1ccccc1	9380	6.25	7.53
CN1CCCC1CCNCc1cc(-c2ccnc3cc(Cl)ccc23)ccc1O (stereo unspecified)	15200	7.50	6.82
CCOC(=O)c1[nH]c(C)c(Cc2ccc(OCC)cc2)c1C	> 100000	6.55	6.46
CCc1ccccc1NC(=O)C1c2ccccc2C(=O)N(CC(C)C)C1c1cccs1 (stereo unspecified)	> 97200	6.44	6.57
Cc1cc(Nc2cccc(C(F)(F)F)c2)nc2ccc(NC(=O)c3cncc(Br)c3)cc12	> 84400	5.61	5.52
CC(=O)Nc1ccc(C2NC(=O)NC3=Nc4ccccc4SC(c4ccccc4)=C32)cc1 (stereo unspecified)	> 100000	5.99	6.16
CSc1nnc(CN2CCSCC2)n1C	> 10000	5.69	< 5.90
COc1ccc(C2N=C(N)N=C(N)N2c2ccc(C)cc2)cc1 (stereo unspecified)	> 10000	7.13	< 5.79
CCCOC(=O)C1=C(C)NC2=C(C(=O)CC(c3ccc(OC)cc3)C2)C1c1cccc(Cl)c1Cl (stereo unspecified)	> 100000	6.63	7.51
COc1ccc(CCNC(=O)c2cc(S(=O)(=O)N3CC(C)CC(C)C3)ccc2Sc2ccc(F)cc2)cc1OC (stereo unspecified)	> 10000	5.98	5.90
O=C(C1CCC(Cn2c(=S)[nH]c3ccccc3c2=O)CC1)N1CC=C(c2ccccc2)CC1 (stereo unspecified)	> 10000	< 6.02	5.92
CC(C)(C)NC(=O)c1cn(C2CCCCC2)cc(C(=O)NC2CCN(Cc3ccccc3)C2)c1=O (stereo unspecified)	> 10000	6.73	> 7.89
Cc1ccccc1Nc1nc(NCCO)c2ccccc2n1	23700	5.77	6.16

SMILES	CC50 [1] [nM]	pEC50 (Plasmodium falciparum [2])	pEC50 (Plasmodium falciparum [3])
CCOC(=O)CCC(=O)N(C)CCCNc1ccnc2cc(Cl)ccc12	> 10000	6.17	> 7.81
CCOc1cc(C2C(C(=O)OC)=CNC=C2C(=O)OC)cc(Br)c1OCC	> 100000	6.41	6.56
COCCCNC(=O)C=Cc1ccc(C(C)C)cc1	> 100000	5.23	5.45
Cc1ccc(-c2ccc(C#N)c(OCC(=O)NCCc3ccccc3)n2)c(C)c1	> 10000	< 5.90	< 5.97
Cc1ccc(C2CC(C(F)(F)F)n3ncc(C(=O)Nc4ccc(Cl)cc4)c3N2)cc1 (stereo unspecified)	95000	5.54	5.46
CCCCc1c(CCC)c(=N)c2ccccc2n1C	71900	6.51	6.37
COC(=O)c1ccc(C2C3=C(O)CC(c4cccs4)CC3=Nc3ccccc3N2C(=O)c2ccccc2)cc1 (stereo unspecified)	25000	6.36	6.20
CCOC(=O)C1CCN(C(c2cc3cc(OC)c(OC)cc3[nH]c2=O)c2nnnn2Cc2ccccc2)CC1 (stereo unspecified)	> 100000	6.38	6.80
N#CCSc1ncccc1C(=O)NCCc1ccc(Oc2ccccc2)cc1	> 10000	5.79	< 6.89
COC(=O)C1=C(C)NC2=C(C(=O)CC(c3ccccc3)C2)C1c1cc(C)sc1SC (stereo unspecified)	> 100000	6.17	6.69
CC(C)CCNC(=O)CN1C(=O)c2cccnc2Oc2ccccc21	> 100000	5.39	5.82
CCN1/C(=C/c2sc3ccc(I)cc3[n+]2CC)C=Cc2ccccc21	> 10000	6.26	6.44
O=c1cccc2n1CC1CC2CN(Cc2cccc(O)c2)C1 (stereo unspecified)	> 100000	< 4.90	5.77
COc1cc(CN2CCN(c3ccccn3)CC2)cc(I)c1O	> 100000	< 5.00	5.31
O=C(NC1CCN(Cc2ccccc2)CC1)c1cc(-c2ccc(F)cc2)cc(-n2cnnn2)c1	45000	6.90	6.90
CN(C)c1cc[n+](CC(=O)c2cccs2)cc1	> 100000	6.19	6.16
COCC(=O)NC(c1ccccc1)c1cc(Cl)c2cccnc2c1O (stereo unspecified)	> 10000	5.98	6.02
O=C(OC(C(=O)NCc1ccco1)c1ccc(F)cc1)c1ccco1 (stereo unspecified)	> 10000	< 5.90	< 6.49
OCCN(CCO)CC(O)Cn1c2ccc(Br)cc2c2cc(Br)ccc21 (stereo unspecified)	27300	5.63	5.81
CCCCCCN(C(=O)COCc1ccccc1)C(CC)c1nc2ccccc2c(=O)n1-c1ccc(F)c(Cl)c1 (stereo unspecified)	> 10000	6.22	6.09
Cc1cc2c(cc1C)NC(c1ccc(Cl)c(F)c1)C1=C(CC(C)(C)CC1=O)N2 (stereo unspecified)	64500	5.97	6.00
CCOC(=O)c1ccc(N(C(=O)Cc2c[nH]c3ccccc23)C(C(=O)NC2CCCCC2)c2cccnc2)cc1 (stereo unspecified)	> 100000	6.55	6.53
COc1ccc2nc(C)cc(Nc3ccc(Oc4ccc(Cl)cc4)c(Cl)c3)c2c1	9340	6.77	6.24

SMILES	CC50 [1] [nM]	pEC50 (Plasmodium falciparum [2])	pEC50 (Plasmodium falciparum [3])
CC(=O)N1CCNC1=Nc1c(Cl)nc(C)nc1Cl	> 10000	6.35	6.30
CCOC(=O)N1CCN(C(=O)CCCCn2c(=S)[nH]c3ccsc3c2=O)CC1	> 10000	< 5.95	< 5.90
O=C1CC(=O)Nc2cc(S(=O)(=O)NC3CCCCCCC3)ccc2N1	> 10000	< 5.90	< 6.10
Cc1ccc2nc(Nc3ncc4c(n3)CC(C)(C)CC4=O)nc(C)c2c1	> 100000	< 4.90	5.90
COc1cccc(Cn2c(C)nc3cc(NC(=O)Nc4ccccc4)c(C)nc32)c1	> 13100	< 6.35	6.79
CCOC(=O)C1=C(C)NC2=C(C(=O)CCC2)C1c1ccc([N+](=O)[O-])cc1 (stereo unspecified)	> 100000	6.04	6.24
CC(C)(C)Cc1ccc(OCCCC(=O)Nc2ccc(Cl)c(N)c2)c(CC(C)(C)C)c1	> 100000	5.76	6.07
CSc1nnc(CCNC(=O)c2c(-c3ccccc3)noc2C)n1-c1ccc(F)cc1	> 100000	< 4.90	5.62
CCOC(=O)c1nnn(-c2nonc2-n2cccc2)c1CN1CCCCC1	> 100000	5.61	5.66
COc1ccc(CNc2cc(-c3ccc(F)c(F)c3)nc3ccnn23)cc1	> 100000	6.17	6.16
CC(C)CN(CC(=O)Nc1cc(C(C)(C)C)nn1-c1ccccc1)C(=O)COc1ccccc1	17600	6.11	6.36
Cc1noc(C)c1S(=O)(=O)N(Cc1ccccc1)CC(O)CN1CCC(NC(=O)c2cccc3ccccc23)C1 (stereo unspecified)	> 10000	6.90	> 8.19
CC1CC(=O)NN=C1c1ccc(NC(=O)c2ccccc2)cc1 (stereo unspecified)	> 10000	6.52	6.57
Cn1nc(C(=O)N2CCCC2)c2c1CCC(NCc1cnc3ccccc3c1)C2 (stereo unspecified)	> 10000	< 5.90	< 6.07
Nc1cccc(C(=O)Nc2ccc(Oc3cccc(Oc4ccc(NC(=O)c5cccc(N)c5)cc4)c3)cc2)c1	> 100000	< 4.92	5.59
N#C/C(=C\n1cc(Cc2ccc(Cl)cc2Cl)c2ccccc21)c1nn(CCO)c(N)c1C#N	> 10000	6.04	6.03
Cc1ccc(C=NNC(=O)c2nnn(-c3nonc3N)c2-c2ccc([N+](=O)[O-])cc2)cc1	> 73000	6.69	6.30
Cn1cnc2cc(OC3CCN(Cc4ccco4)CC3)ccc21	> 4340	6.67	6.72
COc1ccc(NC(=O)c2cc3cc(C4(O)CCN(CC(C)(C)C)CC4)ccc3o2)cc1OC	> 10000	< 5.90	6.32
CCOC(=O)C1=C(CC)NC2=C(C(=O)CC(C)(C)C2)C1c1ccccc1F (stereo unspecified)	> 100000	6.34	6.82
COCC(=O)N(C)CCCNc1ccnc2cc(Cl)ccc12	> 10000	6.81	6.46
